Source: US20090131430A1, “PYRIDO'2,3-DIPYRIMIDINES AS ANTI-INFLAMMATORY AGENTS” (priority 2004, published 2009)

Tested on: TNF-α release from peripheral blood mononuclear cells
Test: Cell based assay for TNF-α release, LPS stimulation of human PBMNC's (ELISA)
Conditions: PBMC, LPS 20 ng/ml, overnight, span over the group, units given in the value
Protocol: Human whole blood was collected in vacutainer tubes containing EDTA as an anti coagulant. A blood sample (7 ml) was carefully layered over 5 ml PMN Cell Isolation Medium (Robbins Scientific) in a 15 ml round bottom centrifuge tubes. The sample was centrifuged at 450-500×g for 30-35 minutes in a swing-out rotor at room temperature. After centrifugation the top band of cells were removed and washed 3 times with PBS w/o calcium or magnesium. The cells were centrifuged at 400×g for 10 minutes at room temperature. The cells were resuspended in Macrophage Serum Free Medium (Gibco BRL) at concentration of 2 million cells/ml.
PBM cells (0.1 ml; 2 million/ml) were co-incubated with 0.1 ml of compound (10-0.41 μM, final concentration) for 1 hour in flat bottom 96 well microtiter plate. Compounds were dissolved in DMSO initially and diluted in TCM for a final concentration of 0.1% DMSO. LPS (Cal biochem, 20 ng/ml, final concentration) was then added at volume of 0.010 ml. Cultures were incubated overnight at 37° C.). Supernatant were then removed and tested by ELISA for TNF-α release. Viability was analyzed using MTT. After 0.1 ml supernatant was collected, 0.1 ml of 0.25 mg/ml of MTT was added to remaining 0.1 ml of cells. The cells were incubated at 37° C. for 2-4 hours, then the O.D was measured at 490-650 nm n.
The TNF-α levels released in the culture medium were quantitated by ELISA. Inhibitory potency was expressed as IC50.

Compound	IC50 [nM]
CN1CC2C(C1)C2Nc1ncc2cc(-c3ccccc3Cl)c(=O)n(C3CC3)c2n1 (stereo not shown) [Compound No. 20, 6-(2-Chlorophenyl)-8-cyclopropyl-2-(3-methyl-3-aza-bicyclo[3.1.0]hex-6-ylamino)-8H-pyrido[2,3-d]pyrimidin-7-one]	12 to 2300
O=c1c(-c2ccccc2Cl)cc2cnc(NC3C4CNCC43)nc2n1C1CC1 (stereo not shown) [Compound No. 19, 2-(3-Aza-bicyclo[3.1.0]hex-6-ylamino)-6-(2-chlorophenyl)-8-cyclopropyl-8H-pyrido[2,3-d]pyrimidin-7-one]	12 to 2300
O=c1[nH]c2nc(NC3C4CNCC43)ncc2cc1-c1ccccc1Cl (stereo not shown) [Compound No. 58, 2-(3-Aza-bicyclo[3.1.0]hex-6-ylamino)-6-(2-chlorophenyl)-8H-pyrido[2,3-d]pyrimidin-7-one]	12 to 2300
N#CCn1c(=O)c(-c2ccccc2Cl)cc2cnc(NC3C4CN(C(=O)Nc5ccc(F)cc5)CC43)nc21 (stereo not shown) [Compound No. 57, 6-[6-(2-Chlorophenyl)-8-cyanomethyl-7-oxo-7,8-dihydro-pyrido[2,3-d]pyrimidin-2-ylamino]-3-aza-bicyclo[3.1.0]hexane-3-carboxylic acid (4-fluorophenyl)-amide]	12 to 2300
Cn1c(=O)c(-c2ccccc2Cl)cc2cnc(NC3C4CN(C(=O)Nc5ccc(F)cc5)CC43)nc21 (stereo not shown) [Compound No. 2, 6-[6-(2-Chlorophenyl)-8-methyl-7-oxo-7,8-dihydro-pyrido[2,3-d]pyrimidin-2-ylamino]-3-aza-bicyclo[3.1.0]hexane-3-carboxylic acid-(4-fluorophenyl)-amide]	12 to 2300
CC(C)(C)CC(C)(C)NC(=O)N1CC2C(C1)C2Nc1ncc2cc(-c3ccccc3Cl)c(=O)n(C3CC3)c2n1 (stereo not shown) [Compound No. 24]	12 to 2300
NC(=O)N1CC2C(C1)C2Nc1ncc2cc(-c3ccccc3Cl)c(=O)n(C3CC3)c2n1 (stereo not shown) [Compound No. 63, 6-[6-(2-Chlorophenyl)-8-cyclopropyl-7-oxo-7,8-dihydro-pyrido[2,3-d]pyrimidin-2-ylamino]-3-aza-bicyclo[3.1.0]hexane-3-carboxylic acid amide]	12 to 2300
O=C(Nc1ccc(F)cc1)N1CC2C(C1)C2Nc1ncc2cc(-c3ccccc3Cl)c(=O)n(C3CC3)c2n1 (stereo not shown) [Compound No. 26, 6-[6-(2-Chlorophenyl)-8-cyclopropyl-7-oxo-7,8-dihydro-pyrido[2,3-d]pyrimidin-2-ylamino]-3-aza-bicyclo[3.1.0]hexane-3-carboxylic acid-(4-fluorophenyl)-amide]	12 to 2300
O=C(OCc1ccccc1)N1CC2C(C1)C2Nc1ncc2cc(-c3ccccc3Cl)c(=O)n(-c3ccc(F)cc3)c2n1 (stereo not shown) [Compound No. 12, 6-[6-(2-Chlorophenyl)-8-(4-fluorophenyl)-7-oxo-7,8-dihydro-pyrido[2,3-d]pyrimidin-2-ylamino]-3-aza-bicyclo[3.1.0]hexane-3-carboxylic acid benzyl ester]	12 to 2300
CC(=O)N1CC2C(C1)C2Nc1ncc2cc(-c3ccccc3Cl)c(=O)n(C3CC3)c2n1 (stereo not shown) [Compound No. 23, 2-(3-Acetyl-3-aza-bicyclo[3.1.0]hex-6-ylamino)-6-(2-chlorophenyl)-8-cyclopropyl-8H-pyrido[2,3-d]pyrimidin-7-one]	12 to 2300
Cn1c(=O)c(-c2ccccc2Cl)cc2cnc(NC3C4CN(S(C)(=O)=O)CC43)nc21 (stereo not shown) [Compound No. 4, 6-(2-Chlorophenyl)-2-(3-methanesulphonyl-3-aza-bicyclo[3.1.0]hex-6-ylamino)-8-methyl-8H-pyrido[2,3-d]pyrimidin-7-one]	12 to 2300

Second part, the compound after the results:

IC50 [nM]	Compound
12 to 2300	O=c1c(-c2ccccc2Cl)cc2cnc(NCC3C4CN(Cc5ccccc5)CC34)nc2n1-c1ccc(F)cc1 (stereo not shown) [Compound No. 16, 2-[(3-Benzyl-3-aza-bicyclo[3.1.0]hex-6-ylmethyl)-amino]-6-(2-chlorophenyl)-8-(4-fluorophenyl)-8H-pyrido[2,3-d]pyrimidin-7-one]
12 to 2300	O=c1c(-c2ccccc2Cl)cc2cnc(NC3C4CN(Cc5ccccc5)CC43)nc2n1C1CC1 (stereo not shown) [Compound No. 17, 2-(3-Benzyl-3-aza-bicyclo[3.1.0]hex-6-ylamino)-6-(2-chlorophenyl)-8-cyclopropyl-8H-pyrido[2,3-d]pyrimidin-7-one]
12 to 2300	O=c1c(-c2ccccc2Cl)cc2cnc(NC3C4COCC3CN(Cc3ccccc3)C4)nc2n1C1CC1 (stereo not shown) [Compound No. 33, 2-(7-Benzyl-3-oxa-7-aza-bicyclo[3.3.1]non-9-ylamino)-6-(2-chlorophenyl)-8-cyclopropyl-8H-pyrido[2,3-d]pyrimidin-7-one]
12 to 2300	O=C(OCc1ccccc1)N1CC2C(C1)C2Nc1ncc2cc(-c3ccccc3Cl)c(=O)n(C3CC3)c2n1 (stereo not shown) [Compound No. 18, 6-[6-(2-Chlorophenyl)-8-cyclopropyl-7-oxo-7,8-dihydro-pyrido[2,3-d]pyrimidin-2-ylamino]-3-aza-bicyclo[3.1.0]hexane-3-carboxylic acid benzyl ester]
12 to 2300	N#CCn1c(=O)c(-c2ccccc2Cl)cc2cnc(NC3C4CN(Cc5ccccc5)CC43)nc21 (stereo not shown) [Compound No. 56, [2-(3-Benzyl-3-aza-bicycyclo[3.1.0]hex-6-ylamino)-6-(2-chlorophenyl)-7-oxo-7H-pyrido[2,3-d]pyrimidin-8-yl]-acetonitrile]
12 to 2300	O=c1[nH]c2nc(NC3C4CN(Cc5ccccc5)CC43)ncc2cc1-c1ccccc1Cl (stereo not shown) [Compound No. 27, 2-(3-Benzyl-3-aza-bicyclo[3.1.0]hex-6-ylamino)-6-(2-chlorophenyl)-8H-pyrido[2,3-d]pyrimidin-7-one]
12 to 2300	Cn1c(=O)c(-c2ccccc2Cl)cc2cnc(NC3C4CN(C(=O)OCc5ccccc5)CC43)nc21 (stereo not shown) [Compound No. 6, 6-[6-(2-Chlorophenyl)-8-methyl-7-oxo-7,8-dihydro-pyrido[2,3-d]pyrimidin-2-ylamino]-3-aza-bicyclo[3.1.0]hexane-3-carboxylic acid benzyl ester]

Tested on: not listed separately
Test: Precipitate formation in the DMSO solvent used
Type: physicochemical
Conditions: DMSO solvent used in testing

Compound	formed a precipitate in the DMSO solvent used
Cc1ccc(S(=O)(=O)N2CC3C(C2)C3Nc2ncc3cc(-c4ccccc4Cl)c(=O)n(C)c3n2)cc1 (stereo not shown) [Compound No. 43, 6-(2-Chlorophenyl)-8-methyl-2-[3-(toluene-4-sulfonyl)-3-aza-bicyclo[3.1.0]hex-6-ylamino]-8H-pyrido[2,3-d]pyrimidin-7-one]	formed a precipitate in the DMSO solvent used
Cn1c(=O)c(-c2ccccc2Cl)cc2cnc(NC3C4CN(S(=O)(=O)c5ccccc5)CC43)nc21 (stereo not shown) [Compound No. 41, 2-(3-Benzenesulphonyl-3-aza-bicyclo[3.1.0]hex-6-ylamino)-6-(2-chlorophenyl)-8-methyl-8H-pyrido[2,3-d]pyrimidin-7-one]	formed a precipitate in the DMSO solvent used
O=c1c(-c2ccccc2Cl)cc2cnc(NC3C4CN(S(=O)(=O)c5ccc(C(F)(F)F)cc5)CC43)nc2n1C1CC1 (stereo not shown) [Compound No. 37, 6-(2-Chlorophenyl)-8-cyclopropyl-2-[3-(4-trifluoromethylbenzenesulfonyl)-3-aza-bicyclo[3.1.0]hex-6-ylamino]-8H-pyrido[2,3-d]pyrimidin-7-one]	formed a precipitate in the DMSO solvent used
O=c1[nH]c2nc(NC3C4COCC3CN(Cc3ccccc3)C4)ncc2cc1-c1ccccc1Cl (stereo not shown) [Compound No. 61, 2-(7-Benzyl-3-oxa-7-aza-bicyclo[3.3.1]non-9-ylamino)-6-(2-chlorophenyl)-8H-pyrido[2,3-d]pyrimidin-7-one]	formed a precipitate in the DMSO solvent used
CC(C)(C)CC(C)(C)NC(=O)N1CC2C(C1)C2Nc1ncc2cc(-c3ccccc3Cl)c(=O)n(C3CC3)c2n1 (stereo not shown) [Compound No. 24]	formed a precipitate in the DMSO solvent used
Cc1ccc(S(=O)(=O)N2CC3C(C2)C3Nc2ncc3cc(-c4ccccc4Cl)c(=O)n(C4CC4)c3n2)cc1 (stereo not shown) [Compound No. 21, 6-(2-Chlorophenyl)-8-cyclopropyl-2-[3-(toluene-4-sulphonyl)-3-aza-bicyclo[3.1.0]hex-6-ylamino]-8H-pyrido[2,3-d]pyrimidin-7-one]	formed a precipitate in the DMSO solvent used

Tested on: not given
Test: not given
Conditions: not given

melting point [°C]	Compound
118.7 to 125.2	CCOC(=O)N1CC2C(C1)C2Nc1ncc2cc(-c3ccccc3Cl)c(=O)n(C)c2n1 (stereo not shown) [Compound No. 68, 6-[6-(2-Chlorophenyl)-8-methyl-7-oxo-7,8-dihydro-pyrido[2,-d]pyrimidin-2-ylamino]-3-aza-bicyclo[3.1.0]hexane-3-carboxylic acid ethyl ester]
147.4 to 153.8	Cn1c(=O)c(-c2ccccc2Cl)cc2cnc(NC3CC4CCC(C3)N4Cc3ccccc3)nc21 (stereo not shown)
76.9 to 82	Cn1c(=O)c(-c2ccccc2Cl)cc2cnc(NC3CC4CCCC(C3)N4Cc3ccccc3)nc21 (stereo not shown)
107.4 to 110.4	O=c1c(-c2ccccc2Cl)cc2cnc(NC3C4COCC3CN(Cc3ccccc3)C4)nc2n1-c1ccc(F)cc1 (stereo not shown) [Compound No. 52, 2-(7-Benzyl-3-oxa-7-aza-bicyclo[3.3.1]non-9-ylamino)-6-(2-chlorophenyl)-8-(4-fluorophenyl)-8H-pyrido[2,3-d]pyrimidin-7-one]
